Measurements published in US4537879A, “A47934 Antibiotic and process for production thereof” (Eli Lilly and Company, priority 1984, dated 1985).
≈ marks a conversion by molar mass, not a printed value. Like-named read-outs stand apart in the source and are kept apart here.

Key:
[1] = system: Peptostreptococcus anaerobius 1428; assay: MIC against anaerobic bacteria, agar dilution; type: cell-based; conditions: strain 1428
[2] = system: Clostridium difficile 2994; assay: MIC against anaerobic bacteria, agar dilution; type: cell-based; conditions: strain 2994
Bacteroides fragilis = assay: MIC against anaerobic bacteria, agar dilution; type: cell-based
Salmonella typhi = assay: MIC against a variety of bacteria, standard agar-dilution; type: cell-based
[3] = Test 3: growth promotion in weanling pigs; type: in vivo; conditions: 28 days
Procedure: Antibiotic A47934 was tested at levels of 10 and 50 ppm. in the diet of pigs initially weighing an average of about 23 pounds, compared with […]) administered in the diet at 110 ppm. The experiment was conducted in an environmentally controlled nursery facility with wire mesh floors in the pens. There were four replicates per treatment and four pigs per replicate for the 28-day experiment. There were six replicates of four pigs per replicate in the control group, which group received the unmedicated diet. The pigs were fed ad libitum on an 18 percent protein corn-soy ration having the following composition: At the end of the trial, the average weight of the individual pig had increased to 53 pounds.

Staphylococcus aureus = assay: MIC against a variety of bacteria, standard agar-dilution; type: cell-based
[4] = Test 2: growth promotion in chickens; type: in vivo, 8-day old Penobscot broilers; conditions: chicks, 20 g./T. of feed, 21 days
Text: Chicks, 8-day old Penobscot broilers, were used in this test. A total of 560 chicks were used divided into groups of 7 birds each. […] The broiler starter ration has the following composition: Feed and water were available to all groups ad libitum for 21 days. Two time replicates were run.

[5] = system: Peptococcus asaccharolyticus 1302; assay: MIC against anaerobic bacteria, agar dilution; type: cell-based; conditions: strain 1302
S. pneumoniae (Park I) = assay: In vivo activity against experimental bacterial infection; conditions: mice, two doses subcutaneously
[6] = system: Bacteroides corrodens 1874; assay: MIC against anaerobic bacteria, agar dilution; type: cell-based; conditions: strain 1874
[7] = system: Bacteroides vulgatis 1211; assay: MIC against anaerobic bacteria, agar dilution; type: cell-based; conditions: strain 1211
[8] = system: Clostridium perfringens 81; type: cell-based; conditions: strain 81; agar dilution
S. pyogenes C203 = assay: In vivo activity against experimental bacterial infection; conditions: mice, two doses subcutaneously
[9] = system: Clostridium septicum 1128; assay: MIC against anaerobic bacteria, agar dilution; type: cell-based; conditions: strain 1128
Haemophilus influenza = assay: MIC against a variety of bacteria, standard agar-dilution; type: cell-based
Peptococcus prevoti 1281 = conditions: strain 1281; agar dilution
[10] = system: volatile fatty acids produced in the rumen; assay: Test 1: in vitro modification of the ratio of volatile fatty acids produced in the rumen
Text: The effectiveness of antibiotic A47934 in modifying the ratio of volatile fatty acids produced in the rumen has been determined using the in vitro test described in Raun, U.S. Pat. No. 3,928,571 (Dec. 23, 1975), see the EXAMPLE therein. The data in Table 9, which follows, are reported as the ratio of VFA's produced in treated flasks to VFA's produced in untreated control flasks.

[11] = system: Bacteroides thetaiotaomicron 1438; assay: MIC against anaerobic bacteria, agar dilution; type: cell-based; conditions: strain 1438
S. aureus (3055) = assay: In vivo activity against experimental bacterial infection; conditions: mice, two doses subcutaneously; S. aureus (3055) infection
[12] = system: Fusobacterium symbiosum 1470; assay: MIC against anaerobic bacteria, agar dilution; type: cell-based; conditions: strain 1470
Streptococcus Group D = assay: MIC against a variety of bacteria, standard agar-dilution; type: cell-based
[13] = system: Bacteroides melaninogenicus; assay: MIC against anaerobic bacteria, agar dilution; type: cell-based
[14] = system: Propionibacterium acnes 79; assay: MIC against anaerobic bacteria, agar dilution; type: cell-based; conditions: strain 79
[15] = system: Streptococcus pneumoniae Park 1; assay: MIC against a variety of bacteria, standard agar-dilution; type: cell-based; conditions: strain Park 1
[16] = system: Eubacterium aerofaciens 1235; assay: MIC against anaerobic bacteria, agar dilution; type: cell-based; conditions: strain 1235
[17] = system: Peptostreptococcus intermedius 1264; assay: MIC against anaerobic bacteria, agar dilution; type: cell-based; conditions: strain 1264
[18] = system: Fusobacterium necrophorum 6054A; assay: MIC against anaerobic bacteria, agar dilution; type: cell-based; conditions: strain 6054A
[19] = Acute toxicity, intraperitoneal; type: in vivo; conditions: mice, intraperitoneally
Procedure: Antibiotic A47934, when given intraperitoneally to mice, has an acute toxicity greater than 300 mg./kg.

[20] = system: Staphylococcus epidermidis; assay: MIC against a variety of bacteria, standard agar-dilution; type: cell-based
[21] = system: Clostridium difficile strains; assay: MIC against Clostridium difficile strains, agar-dilution; type: cell-based
Text: Antibiotic A47934 is also active against a number of strains of Clostridium difficile, as determined by the agar-dilution method.

[22] = system: Streptococcus pyogenes C203; assay: MIC against a variety of bacteria, standard agar-dilution; type: cell-based; conditions: strain C203
[23] = Precipitation from broth filtrate on acidification; type: physicochemical; conditions: broth filtrate acidified
Text: Antibiotic A47934 can also be removed from the broth filtrate by adjusting such filtrate to about pH 3 with acid, for complete precipitation, followed by filtration. A47934 starts to precipitate at about pH 6.5 and is complete at about pH 3. Inorganic acids such as hydrochloric, sulfuric, and phosphoric, and organic acids such as acetic acid and formic acid are suitable for acidification. The crude A47934 thus obtained can be further purified by chromatographic procedures.

Which results are given for `N[C@H]1C(=O)N[C@@H]2Cc3ccc(c(Cl)c3)Oc3cc4cc(c3O)Oc3ccc(cc3Cl)[C@@H](O)[C@@H]3NC(=O)[C@H](NC(=O)[C@@H]4NC(=O)[C@@H](NC2=O)c2cc(O)cc(c2)Oc2cc1ccc2OS(=O)(=O)O)c1cc(Cl)c(O)c(c1)-c1c(O)cc(O)cc1[C@@H](C(=O)O)NC3=O` [Antibiotic A47934]?
MIC [1]: 0.25 µg/mL (≈ 0.19 µM); MIC (Klebsiella pneumoniae; strain KAE): > 128.0 µg/mL; MIC (Klebsiella pneumoniae; strain X26): > 128.0 µg/mL; MIC [2]: 0.5 µg/mL (≈ 0.381 µM); MIC (Bacteroides fragilis; strain 111): 32.0 µg/mL (≈ 24.4 µM); MIC (Bacteroides fragilis; strain 1877): 32.0 µg/mL (≈ 24.4 µM); MIC (Bacteroides fragilis; strain 1936B): 32.0 µg/mL (≈ 24.4 µM); MIC (Escherichia coli; strain EC14): > 128.0 µg/mL; MIC (Escherichia coli; strain N10): > 128.0 µg/mL; MIC (Escherichia coli; strain TEM): > 128.0 µg/mL; MIC (Salmonella typhi; strain 1335): > 128 µg/mL; MIC (Salmonella typhi; strain X514): > 128 µg/mL; ADF % Im-crease ([3]; 10 ppm in diet): -3.2%; ADF (average daily feed consumption) ([3]; 10 ppm in diet): 1.83 lbs.; ADG % Im-crease ([3]; 10 ppm in diet): 3.1%; ADG (average daily gain) ([3]; 10 ppm in diet): 1.00 lbs.; F/G % Improvement ([3]; 10 ppm in diet): 7.6%; F/G (ratio of feed consumption to gain) ([3]; 10 ppm in diet): 1.82; ADF % Im-crease ([3]; 50 ppm in diet): 4.7%; ADF (average daily feed consumption) ([3]; 50 ppm in diet): 1.98 lbs.; ADG % Im-crease ([3]; 50 ppm in diet): 10.3%; ADG (average daily gain) ([3]; 50 ppm in diet): 1.07 lbs.; F/G % Improvement ([3]; 50 ppm in diet): 6.1%; F/G (ratio of feed consumption to gain) ([3]; 50 ppm in diet): 1.85; MIC (Staphylococcus aureus): 0.125 µg/mL (≈ 0.0952 µM); MIC (Staphylococcus aureus; strain S13E): 0.125 µg/mL (≈ 0.0952 µM); MIC (Staphylococcus aureus; strain X1.1): 0.06 µg/mL (≈ 0.0457 µM); MIC (Staphylococcus aureus; strain X400): 0.25 µg/mL (≈ 0.19 µM); Feed Efficiency % Impr. ([4]; first time replicate): 4.69%; Feed Efficiency F/G ([4]; first time replicate): 1.707; Weight Gain ([4]; first time replicate): 519 gm.; Weight Gain % Impr. ([4]; first time replicate): 7.23%; Feed Efficiency F/G ([4]; second time replicate): 1.746; Weight Gain ([4]; second time replicate): 464 gm.; Weight Gain % Impr. ([4]; second time replicate): 0%; MIC [5]: 0.5 µg/mL (≈ 0.381 µM); ED50 (S. pneumoniae (Park I)): 1.77 mg./kg. × 2; MIC [6]: 32.0 µg/mL (≈ 24.4 µM); MIC [7]: 32.0 µg/mL (≈ 24.4 µM); MIC [8]: 0.5 µg/mL (≈ 0.381 µM); ED50 (S. pyogenes C203): 3.38 mg./kg. × 2; MIC [9]: 0.5 µg/mL (≈ 0.381 µM); MIC (Haemophilus influenza; strain 76): 4.0 µg/mL (≈ 3.05 µM); MIC (Haemophilus influenza; strain C.L.): 2.0 µg/mL (≈ 1.52 µM); MIC (Peptococcus prevoti 1281): 1.0 µg/mL (≈ 0.761 µM); Acetate, ratio of VFA produced in treated flasks to untreated control flasks ([10]; 1 mcg./ml.): 0.99; Butyrate, ratio of VFA produced in treated flasks to untreated control flasks ([10]; 1 mcg./ml.): 1.01; Propionate, ratio of VFA produced in treated flasks to untreated control flasks ([10]; 1 mcg./ml.): 1.11; Acetate, ratio of VFA produced in treated flasks to untreated control flasks ([10]; 2 mcg./ml.): 1.09; Butyrate, ratio of VFA produced in treated flasks to untreated control flasks ([10]; 2 mcg./ml.): 1.03; Propionate, ratio of VFA produced in treated flasks to untreated control flasks ([10]; 2 mcg./ml.): 1.10; Acetate, ratio of VFA produced in treated flasks to untreated control flasks ([10]; 4 mcg./ml.): 0.81; Butyrate, ratio of VFA produced in treated flasks to untreated control flasks ([10]; 4 mcg./ml.): 1.03; Propionate, ratio of VFA produced in treated flasks to untreated control flasks ([10]; 4 mcg./ml.): 1.32; Acetate, ratio of VFA produced in treated flasks to untreated control flasks ([10]; 10 mcg./ml.): 0.95; Butyrate, ratio of VFA produced in treated flasks to untreated control flasks ([10]; 10 mcg./ml.): 1.00; Propionate, ratio of VFA produced in treated flasks to untreated control flasks ([10]; 10 mcg./ml.): 1.12; MIC [11]: 32.0 µg/mL (≈ 24.4 µM); ED50 (S. aureus (3055)): < 0.3 mg./kg. × 2; MIC [12]: 2.0 µg/mL (≈ 1.52 µM); MIC (Streptococcus Group D; strain 9960): 0.5 µg/mL (≈ 0.381 µM); MIC (Streptococcus Group D; strain X66): 0.5 µg/mL (≈ 0.381 µM); MIC ([13]; strain 1856/28): > 128.0 µg/mL; MIC ([13]; strain 2736): 16.0 µg/mL (≈ 12.2 µM); MIC [14]: 1.0 µg/mL (≈ 0.761 µM); MIC [15]: 0.06 µg/mL (≈ 0.0457 µM); MIC [16]: 1.0 µg/mL (≈ 0.761 µM); MIC [17]: 1.0 µg/mL (≈ 0.761 µM); MIC [18]: 0.25 µg/mL (≈ 0.19 µM); acute toxicity [19]: greater than 300 mg./kg.; MIC ([20]; strain EPI1): 0.25 µg/mL (≈ 0.19 µM); MIC ([20]; strain EPI2): 2.0 µg/mL (≈ 1.52 µM); MIC ([21]; strain 78): ≤ 0.5 µg/mL; MIC ([21]; strain 107B): ≤ 0.5 µg/mL; MIC ([21]; strain 111F): ≤ 0.5 µg/mL; MIC ([21]; strain 1153): ≤ 0.5 µg/mL; MIC ([21]; strain 2634): ≤ 1.0 µg/mL; MIC ([21]; strain 3424-5B): ≤ 0.5 µg/mL; MIC ([21]; strain 3816): ≤ 0.5 µg/mL; MIC ([21]; strain 3950D): ≤ 0.5 µg/mL; MIC ([21]; strain 6890): ≤ 0.5 µg/mL; MIC ([21]; strain 8484): ≤ 0.5 µg/mL; MIC ([21]; strain A-194): ≤ 0.5 µg/mL; MIC ([21]; strain A-195): ≤ 0.5 µg/mL; MIC ([21]; strain A-196): ≤ 0.5 µg/mL; MIC ([21]; strain A-279): ≤ 1.0 µg/mL; MIC ([21]; strain A-280): ≤ 0.5 µg/mL; MIC ([21]; strain A-281): ≤ 0.5 µg/mL; MIC ([21]; strain WAL-2112): ≤ 0.5 µg/mL; MIC ([21]; strain WAL-3657): ≤ 0.5 µg/mL; MIC ([21]; strain WAL-4268): ≤ 0.5 µg/mL; MIC [22]: 0.25 µg/mL (≈ 0.19 µM); pH at which A47934 starts to precipitate [23]: ~6.5 pH; pH at which precipitation is complete [23]: ~3 pH

Which results are given for `CC[C@H]1OC(=O)C[C@@H](O)[C@H](C)[C@@H](O[C@@H]2O[C@H](C)[C@@H](O[C@H]3C[C@@](C)(O)[C@@H](O)[C@H](C)O3)[C@H](N(C)C)[C@H]2O)[C@@H](CC=O)C[C@@H](C)C(=O)/C=C/C(C)=C/[C@@H]1CO[C@@H]1O[C@H](C)[C@@H](O)[C@@H](OC)[C@H]1OC` [Tylan, tylosin, reference compound]?
ADF % Im-crease ([3]; 110 ppm in diet): 2.6%; ADF (average daily feed consumption) ([3]; 110 ppm in diet): 1.94 lbs.; ADG % Im-crease ([3]; 110 ppm in diet): 4.1%; ADG (average daily gain) ([3]; 110 ppm in diet): 1.01 lbs.; F/G % Improvement ([3]; 110 ppm in diet): 2.5%; F/G (ratio of feed consumption to gain) ([3]; 110 ppm in diet): 1.92
